Counter-ions that a name gives are not always drawn. Like-named read-outs stand apart in the source and are kept apart here.
Key:
[1] = acute toxicity in mice, method of MILLER and TAINTER; conditions: mouse, in vivo, ip
Experimental: In addition, the acute toxicity in mice was evaluated according to the method of MILLER and TAINTER described in Proc. Soc. Exp. Biol. Med. 57 261 (1944).

total transit = total transit test in rats; format: in vivo; conditions: Rattus norvegicus, po, read-out: % animals having completely evacuated the balls after 24 hours; for responders at 10 mg/kg: dose 10 mg/kg p.o.
Experimental: by the total transit test in rats, carried out according to the following method: The compounds of the invention were administered orally simultaneously with 20 steel balls to wakeful rats having eaten nothing for 20 hours. The fast was broken immediately after the administration and the compounds of the invention were administered a second time at the same dose after a period of 7 hours. The total transit was evaluated 24 hours after the first administration of the compounds to be tested by the percentage of the animals having evacuated all the balls in the faeces, the balls being counted by radiological examination.

gastric evacuation = gastric evacuation test on rats; format: in vivo; conditions: rats fasted 20 hours, 20 steel balls
Experimental: by the gastric evacuation test on rats, carried out with the following method: The compounds of the invention are administered orally together with 20 steel balls to wakeful rats having eaten nothing for 20 hours. The action on the gastric evacuation of the tested compounds was evaluated 90 minutes after administration thereof by the percentage of animals whose stomach contained no balls, these balls being counted by radiological examination.

[2] = rats, second administration at same dose after 7 hours, 24 hours
[3] = rats, dose 1 mg/kg p.o., second administration at same dose after 7 hours, 24 hours

Row | Structure (SMILES) | LD50 ([1]; Table III) | responders at 1 mg/kg (total transit; [3]) | also measured
1 | COc1nc(N)ncc1C(=O)NC1CN2CCC1CC2 (stereo not shown) [Code number 1] | 300 mg/kg | – | responders at 10 mg/kg (total transit; [2]): 50%
2 | COc1cc(N)c(Cl)cc1C(=O)NC1CN2CCC1CC2 (stereo not shown) [Code number 2, N-(3-quinuclidinyl)4-amino 5-chloro 2-methoxy benzamide, maleate] | – | 64% | LD50 ([1]; Table II): 105 mg/kg; % animals whose stomach contained no ball after 90 minutes (gastric evacuation; dose 5 mg/kg p.o.): 75%; % animals whose stomach contained no ball after 90 minutes (gastric evacuation; dose 10 mg/kg p.o.): 100%
3 | COc1cccc(C(=O)NC2CN3CCC2CC3)c1 (stereo not shown) [Code number 3] | – | – | LD50 ([1]; Table II): 110 mg/kg; % animals whose stomach contained no ball after 90 minutes (gastric evacuation; dose 2.5 mg/kg p.o.): 100%
4 | O=C(NC1CN2CCC1CC2)c1cccc(F)c1 (stereo not shown) [Code number 5, N-(3-quinuclidinyl)3-fluoro benzamide, oxalate] | – | – | LD50 ([1]; Table II): 140 mg/kg; % animals whose stomach contained no ball after 90 minutes (gastric evacuation; dose 2.5 mg/kg p.o.): 100%
5 | O=C(NC1CN2CCC1CC2)c1ccccc1F (stereo not shown) [compound 6] | 150 mg/kg | – | responders at 10 mg/kg (total transit; [2]): 55%
6 | COc1ccccc1C(=O)NC1CN2CCC1CC2 (stereo not shown) [compound 7] | 150 mg/kg | – | responders at 10 mg/kg (total transit; [2]): 50%
7 | COc1ccc(F)cc1C(=O)NC1CN2CCC1CC2 (stereo not shown) [compound 17] | 140 mg/kg | 57% | –
8 | COc1ccc(Br)cc1C(=O)NC1CN2CCC1CC2 (stereo not shown) [compound 18] | 160 mg/kg | – | responders at 1 mg/kg (total transit; 24 h): 38%
9 | O=C(NC1CN2CCC1CC2)c1cccc(Cl)c1 (stereo not shown) [compound 20] | 145 mg/kg | 50% | –
10 | COc1cc(N)c(Cl)cc1C(=S)NC1CN2CCC1CC2 (stereo not shown) [compound 22] | 300 mg/kg | 63% | –
11 | COc1cc(NC(C)=O)c(Cl)cc1C(=O)N(C)C1CN2CCC1CC2 (stereo not shown) [compound 23] | 50 mg/kg | 38% | –
12 | COc1cc(N)c(Cl)cc1C(=O)N(C)C1CN2CCC1CC2 (stereo not shown) [compound 24] | 70 mg/kg | 38% | –
13 | COc1cc(N)c(Cl)cc1C(=S)N(C)C1CN2CCC1CC2 (stereo not shown) [compound 25] | 80 mg/kg | 44% | –
